Assay results from patent publication US9784730B2, “Nanoparticle for targeting brain tumors and delivery of O6-benzylguanine” (University of Washington through its Center for …, priority 2013, dated 2017).

Key:
SF767 cells = assay: Clonogenic survival assay with TMZ; assay type: cell-based, human
Procedure: SF767 cells are noted for their pronounced resistance to TMZ (LD50 about 600 μM) mediated in large part by MGMT. The effect of suppression of MGMT activity by NPCP-BG on TMZ-mediated reduction in clonogenic survival of SF767 is illustrated in FIG. 6. Cells were exposed to NPCP-BG equivalent to 20 μM free drug for 2 hr followed by incubation with TMZ for 24 hr in the presence of inhibitor. Controls were treated either with 20 μM free BG or with an equivalent volume of DMSO.
Determination of proliferative survival of SF767 by clonogenic assay was performed as described previously (Blank et al., DNA Repair 2004, 3, 629-638). Briefly, 6-well plates inoculated with 2 mL of supplemented medium containing 1000 to 2000 cells were incubated overnight at 37° C. in 95%/5% air/CO2 to allow reattachment and resumption of proliferation. Cells were then incubated for 2 hrs with inhibitor-conjugated NP equivalent to 20 μM free BG prior to exposure to TMZ. Incubation was continued for 22 hr before changing cells to fresh, drug-free medium to allow formation of colonies ≧50 cells. […] Cytotoxicity was quantitated by linear regression analysis of plots of log surviving fraction v. […] Survival was determined in 4 separate experiments in which every dose was assayed in duplicate (i.e., 8 determinations per TMZ dose) in order to achieve statistical significance.

[1] = molecular target: T1, O6-methylguanine-DNA methyltransferase (MGMT) (Homo sapiens, UniProt P16455); assay: MGMT activity assay in treated SF767 cells; assay type: cell-based; settings: 20 μM free BG, 2 hr
T1 construct: MGMT activity determined in cleared supernatants of whole cell homogenates; endogenous in cells; host or cells: SF767 human GBM cell line (ATCC)
T1 sequence (P16455 1-207): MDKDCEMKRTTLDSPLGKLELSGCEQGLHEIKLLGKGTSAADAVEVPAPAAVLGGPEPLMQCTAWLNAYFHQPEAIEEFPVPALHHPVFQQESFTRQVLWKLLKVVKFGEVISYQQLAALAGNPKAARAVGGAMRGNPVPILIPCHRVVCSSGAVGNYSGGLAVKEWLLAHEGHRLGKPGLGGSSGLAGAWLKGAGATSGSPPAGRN
Procedure: In this experiment, MGMT activity was assayed in untreated cells, cells incubated with 20 μM free BG for 2 hr, and cells treated for either 2 hr or 24 hr with NPCP-BG equivalent to 5 μM, 10 μM or 20 μM BG. […] All treatment conditions were normalized as a percent MGMT activity of untreated SF767 cells.
The MGMT activities of protein extracts of human GBM SF767 cells were measured in a standard biochemical assay that quantifies the transfer of radioactivity from a DNA substrate containing [methyl^3H]O^6-methylguanine (specific activity, 80 Ci/mmol) to protein, as detailed previously (Silber et al., Cancer Res 1998, 58, 1068-1073). 2×10^6 SF767 cells were plated in 100 mm treated dishes and incubated with 20 μM free BG for and 2 hr or 24 hr with NPCP-BG equivalent to 5 μM, 10 μM or 20 μM BG in fully supplemented media. After incubation, cells were washed with PBS and collected and protein extracts were prepared. The protein extract supernatant was prepared by dissolution of washed SF767 pellets of known cell number with non-ionic detergents in the presence of 600 mM NaCl. Aliquots of crude homogenate were saved for DNA determination by the diphenylamine method that measures deoxyribose following degradation of DNA with heat and acid. Crude homogenate was cleared by centrifugation at 10,000×g for 30 min. […]

[2] = clinical trials, BG included in TMZ regimens; cited from earlier work
[3] = rodent models; cited from earlier work
brain tumors = settings: cited from earlier work

Nc1nc(OCc2ccccc2)c2nc[nH]c2n1 [BG, O^6-benzylguanine]
TMZ LD50 in presence of MGMT inhibitor (SF767 cells; inhibitor equivalent to 20 μM BG for 2 hr before TMZ for 24 hr): about 15 μM
Fold reduction of MGMT activity [1]: about 28 fold
MGMT activity as percent of untreated activity [1]: about 3.6%
Reduction of maximum tolerated dose (MTD) of TMZ [2]: 50%
Half-life reported in literature [3]: 1.2 h

Cn1nnc2c(C(N)=O)ncn2c1=O [TMZ, temozolomide]
TMZ LD50 (dose reducing clonogenic survival to 50%) (SF767 cells; TMZ alone): about 600 μM

chlorotoxin [CTX]
Brain tumors targeted of those examined (brain tumors): 74 out of 79
